Reference: the NIST ThermoML archive (doi:10.1016/j.jct.2013.06.020)

Assays:
[1] = 298.15 K, 101.33 kPa, Liquid; for speed of sound: Sing-around technique in a fixed-path interferometer; for mass density: Vibrating tube method
[2] = mn = molality of the nth substance listed, in mol/kg; settings: 298.15 K, 101 kPa, Liquid; for speed of sound: Sing-around technique in a fixed-path interferometer; for mass density: Vibrating tube method

CCCCOC(=O)CCC(C)=O [butyl levulinate]
[1]
Settings	mass density [kg/m3]	speed of sound [m/s]
–	969.935	1341.3

CCCCOC(=O)C(C)O (stereo not given) [butyl 2-hydroxypropanoate]
[1]
Settings	mass density [kg/m3]	speed of sound [m/s]
–	977.283	1285

Cc1ccc(C=O)o1 [5-methylfurfural]
[1]
Settings	mass density [kg/m3]	speed of sound [m/s]
–	1103.2	1447

CCOC(=O)C(C)O (racemic) [DL-ethyl lactate]
[1]
Settings	mass density [kg/m3]	speed of sound [m/s]
–	1028.37	1279.7

O=Cc1ccco1 [2-furaldehyde]
[1]
Settings	mass density [kg/m3]	speed of sound [m/s]
–	1154.81	1440.2

C=CC(=O)OC [methyl propenoate]
[1]
Settings	mass density [kg/m3]	speed of sound [m/s]
–	949.174	1169

CCOC(=O)CCC(C)=O [ethyl levulinate]
[1]
Settings	mass density [kg/m3]	speed of sound [m/s]
–	1007.54	1351.2

OCc1ccco1 [2-hydroxymethylfuran]
[1]
Settings	mass density [kg/m3]	speed of sound [m/s]
–	1130.27	1449.8

CCOC(=O)C(C)O (stereo not drawn) [DL-ethyl lactate] + O
[2]
Settings	mass density [kg/m3]	speed of sound [m/s]
m1 = 0.0348	997.552	1498.7
m1 = 0.0378	997.579	1499
m1 = 0.0445	997.674	1499.6
m1 = 0.0513	997.748	1500
m1 = 0.063	997.869	1500.5
m1 = 0.0719	997.967	1501.1
m1 = 0.0895	998.152	1502.2
m1 = 0.1026	998.294	1503
m1 = 0.1207	998.489	1504
m1 = 0.1439	998.732	1505.6
m1 = 0.1856	999.184	1508.6
m1 = 0.2723	1000.1	1514
m1 = 0.5249	1002.7	1526
m1 = 0.6911	1004.35	1533.5
m1 = 0.8467	1005.83	1539.6
m1 = 1.02	1007.41	1545.3
m1 = 1.188	1008.87	1551.3
m1 = 1.359	1010.23	1556.1
m1 = 1.683	1012.78	1563.9
m1 = 2.058	1015.37	1572.5
m1 = 2.41	1017.49	1579
m1 = 2.725	1019.27	1585.2
m1 = 3.226	1021.64	1593.3
m1 = 3.731	1023.63	1601.1
m1 = 4.237	1025.37	1607.5

CCCCOC(=O)C(C)O (stereo not given) [butyl 2-hydroxypropanoate] + O
[2]
Settings	mass density [kg/m3]	speed of sound [m/s]
m1 = 0.0219	997.335	1498.8
m1 = 0.0262	997.377	1499.4
m1 = 0.0328	997.422	1499.9
m1 = 0.0399	997.472	1500.3
m1 = 0.0413	997.482	1500.5
m1 = 0.0444	997.503	1500.8
m1 = 0.0632	997.633	1502.3
m1 = 0.0659	997.652	1502.6
m1 = 0.0775	997.733	1503.7
m1 = 0.0915	997.826	1504.9
m1 = 0.1058	997.928	1506.1
m1 = 0.1167	998.001	1507
m1 = 0.1331	998.116	1508.4
m1 = 0.1551	998.265	1510.2
m1 = 0.1798	998.437	1512.2
m1 = 0.1979	998.576	1514
m1 = 0.2171	998.689	1515.5
m1 = 0.235	998.813	1516.7
m1 = 0.2647	999.004	1518.4
m1 = 0.2785	999.098	1519.4

OCC1CCCO1 (stereo not given) [2-tetrahydrofurylmethanol]
[1]
Settings	mass density [kg/m3]	speed of sound [m/s]
–	1050.75	1485.2

OCc1ccco1 [2-hydroxymethylfuran] + O
[2]
Settings	mass density [kg/m3]	speed of sound [m/s]
m1 = 0.0475	997.854	1498.9
m1 = 0.0537	997.937	1499.3
m1 = 0.0559	997.967	1499.4
m1 = 0.0625	998.054	1499.7
m1 = 0.0688	998.143	1500
m1 = 0.0781	998.269	1500.3
m1 = 0.0999	998.571	1501.3
m1 = 0.1027	998.607	1501.5
m1 = 0.12	998.847	1502.2
m1 = 0.1433	999.158	1503.3
m1 = 0.1651	999.552	1504.3
m1 = 0.2327	1000.39	1507.1
m1 = 0.2468	1000.58	1507.8
m1 = 0.4458	1003.25	1515.9
m1 = 0.618	1005.5	1522.3
m1 = 0.8613	1008.56	1530.4
m1 = 1.054	1010.95	1535.9
m1 = 1.236	1012.93	1540.5
m1 = 1.441	1015.25	1545.5
m1 = 1.656	1017.56	1550
m1 = 1.835	1019.32	1554
m1 = 2.062	1021.73	1559.4
m1 = 2.545	1026.13	1569.5
m1 = 2.874	1028.8	1577.2

COC(=O)CCC(C)=O [methyl levulinate]
[1]
Settings	mass density [kg/m3]	speed of sound [m/s]
–	1045.4	1386.2

O=Cc1ccco1 [2-furaldehyde] + O
[2]
Settings	mass density [kg/m3]	speed of sound [m/s]
m1 = 0.0542	998.113	1499.1
m1 = 0.0556	998.137	1499.2
m1 = 0.0607	998.217	1499.4
m1 = 0.0653	998.295	1499.6
m1 = 0.0686	998.351	1499.7
m1 = 0.075	998.453	1500
m1 = 0.0801	998.537	1500.2
m1 = 0.089	998.69	1500.6
m1 = 0.1095	999.037	1501.4
m1 = 0.1179	999.174	1501.8
m1 = 0.1332	999.425	1502.3
m1 = 0.1717	1000.07	1504
m1 = 0.2053	1000.62	1505.3
m1 = 0.2309	1001.03	1506.1
m1 = 0.3092	1002.32	1508.9
m1 = 0.3436	1002.87	1510
m1 = 0.4132	1003.97	1512.3
m1 = 0.5112	1005.51	1515.2
m1 = 0.5559	1006.19	1516.5
m1 = 0.6557	1007.7	1518.7
m1 = 0.8368	1010.35	1522
m1 = 0.9225	1011.55	1523.5

COC(=O)C(C)O (stereo not given) [methyl 2-hydroxypropanoate]
[1]
Settings	mass density [kg/m3]	speed of sound [m/s]
–	1087.43	1338.8

COC(=O)C(C)O (stereo not given) [methyl 2-hydroxypropanoate] + O
[2]
Settings	mass density [kg/m3]	speed of sound [m/s]
m1 = 0.0487	997.862	1499
m1 = 0.0568	997.968	1499.5
m1 = 0.0707	998.157	1500.4
m1 = 0.0956	998.501	1501.2
m1 = 0.1039	998.614	1501.6
m1 = 0.1117	998.722	1502
m1 = 0.1338	999.035	1503.1
m1 = 0.1539	999.294	1504
m1 = 0.223	1000.24	1507.8
m1 = 0.3212	1001.55	1511.7
m1 = 0.484	1003.64	1518.2
m1 = 0.7855	1007.52	1529
m1 = 0.9699	1009.78	1535.3
m1 = 1.168	1012.12	1542.1
m1 = 1.377	1014.5	1548.7
m1 = 1.56	1016.48	1554.2
m1 = 1.776	1018.7	1561.9
m1 = 1.938	1020.4	1566.9
m1 = 2.237	1023.27	1575.8
m1 = 2.632	1026.82	1588.2
m1 = 2.941	1029.45	1597
m1 = 3.322	1032.46	1606.5
m1 = 3.906	1036.62	1617.2

COC(=O)CCC(C)=O [methyl levulinate] + O
[2]
Settings	mass density [kg/m3]	speed of sound [m/s]
m1 = 0.0322	997.582	1499.2
m1 = 0.0375	997.646	1499.4
m1 = 0.0399	997.675	1499.7
m1 = 0.042	997.701	1499.7
m1 = 0.0537	997.774	1500
m1 = 0.0724	998.063	1500.9
m1 = 0.0737	998.08	1501
m1 = 0.1127	998.543	1503.2
m1 = 0.1571	999.079	1505.7
m1 = 0.1949	999.523	1507.7
m1 = 0.2491	1000.15	1510.6
m1 = 0.3297	1001.08	1514.6
m1 = 0.3905	1001.76	1517.5
m1 = 0.4721	1002.66	1521.3
m1 = 0.5562	1003.58	1525.1
m1 = 0.6293	1004.35	1527.8
m1 = 0.7107	1005.19	1530.9
m1 = 0.7782	1005.87	1533.4
m1 = 0.9597	1007.31	1539.2
m1 = 1.161	1008.76	1544.8
